Consider two compounds from patent publication US7557110B2, “Pyrazolo[1,5-A] pyrimidine derivatives” (Teijin Pharma Limited, priority 2003, dated 2009).

The target of one data set is MAPKAP-K2 (Homo sapiens, UniProt P49137). Briefly: MAPKAP-K2 enzyme activity inhibition (33P-ATP filter plate kinase assay). Note: key: +: active; ++: more active; +++: very active. The following applies: MAPKAP-K2 inhibitory activity; assays conducted at typically 1-100 μM. The data set is classed as biochemical.
Another data set deals with CDK-2 (Homo sapiens, UniProt P24941). Briefly: CDK-2 enzyme activity inhibition (33P-ATP filter plate kinase assay). The data set is classed as biochemical. The note with it: read-out: CDK-2 inhibition IC50. The text has this: [General Procedure for Measurement of CDK-2 Enzyme Activity Inhibition]
The target in another data set is CDK-1 (Homo sapiens, UniProt P06493). The experiment in a line: CDK-1 enzyme activity inhibition (33P-ATP filter plate kinase assay).
Chain of CDK-1 (P06493 whole entry, species assumed): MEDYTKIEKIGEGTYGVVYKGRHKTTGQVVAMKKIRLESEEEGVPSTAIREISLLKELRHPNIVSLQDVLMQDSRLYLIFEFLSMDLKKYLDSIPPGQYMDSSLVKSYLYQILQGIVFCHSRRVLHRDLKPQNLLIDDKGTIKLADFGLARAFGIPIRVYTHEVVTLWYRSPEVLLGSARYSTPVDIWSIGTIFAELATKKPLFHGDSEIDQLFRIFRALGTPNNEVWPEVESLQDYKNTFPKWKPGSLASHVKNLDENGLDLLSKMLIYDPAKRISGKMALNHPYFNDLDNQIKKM
Chain of CDK-1 (P14635 whole entry partner, species assumed): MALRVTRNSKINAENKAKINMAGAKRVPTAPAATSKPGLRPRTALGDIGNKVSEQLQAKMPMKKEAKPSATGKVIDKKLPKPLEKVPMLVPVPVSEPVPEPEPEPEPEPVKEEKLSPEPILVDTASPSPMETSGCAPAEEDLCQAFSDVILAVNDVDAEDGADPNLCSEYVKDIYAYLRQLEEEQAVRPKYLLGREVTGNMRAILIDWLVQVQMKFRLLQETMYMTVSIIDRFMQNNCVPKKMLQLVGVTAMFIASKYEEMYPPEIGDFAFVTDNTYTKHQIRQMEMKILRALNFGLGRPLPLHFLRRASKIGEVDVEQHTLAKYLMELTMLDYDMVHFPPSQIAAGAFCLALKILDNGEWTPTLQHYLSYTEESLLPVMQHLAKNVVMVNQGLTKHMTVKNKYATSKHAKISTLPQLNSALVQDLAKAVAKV

Chain of MAPKAP-K2 (P49137 whole entry): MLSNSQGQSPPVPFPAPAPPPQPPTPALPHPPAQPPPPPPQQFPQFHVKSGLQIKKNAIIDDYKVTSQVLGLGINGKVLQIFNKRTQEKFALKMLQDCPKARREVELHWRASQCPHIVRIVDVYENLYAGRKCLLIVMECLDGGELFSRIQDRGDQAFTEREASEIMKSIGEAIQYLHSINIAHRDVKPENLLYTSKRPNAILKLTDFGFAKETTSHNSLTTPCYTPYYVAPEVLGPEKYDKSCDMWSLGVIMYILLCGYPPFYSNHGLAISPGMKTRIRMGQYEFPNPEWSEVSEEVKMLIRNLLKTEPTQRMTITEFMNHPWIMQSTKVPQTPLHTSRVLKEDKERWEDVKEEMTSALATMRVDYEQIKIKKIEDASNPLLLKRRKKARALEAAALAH
Procedure for CDK-1: [General Procedure for Measurement of CDK-1 Enzyme Activity Inhibition]
Compounds were dissolved in DMSO at a concentration of 10 mM and stored in aliquots at −20° C. Compounds in DMSO from these stock aliquots were diluted in DMSO to produce the required range of 30× stock solutions. These stock solutions were then subjected to 1:3 dilutions in order to prepare the required range of 10× stock solutions and 5 μL of each solution was used per 50 μL reaction.
The kinase reaction was conducted in a round-bottomed polypropylene 96-well plate. CDK-1 was diluted to 0.5 U/μL in diluent buffer (50 mM Tris/HCl. pH7.5, 0.1 mM EGTA, 0.1% (v/v) β-mercaptoethanol, 1 mg/mL BSA). 5 μL compound or 30% DMSO was added to each well followed by 25 μL substrate cocktail (final concentration: 10 μM ATP, 50 μM peptide ([sequence]), 0.5 μCi ^33P-γ-ATP in 50 mM Tris-HCl (pH 7.5), 1 mM EGTA, 2 mM DTT, 10 mM MgCl2, 0.01% Brij-35). The reaction was initiated with the addition of 20 μL enzyme solution per well or 20 μL of diluent buffer without enzyme. The plate was shaken for 10 seconds and then left at room temperature for 15 minutes. The reaction was terminated with 50 μL 150 mM phosphoric acid. 90 μL of the reaction mixture was then transferred into a 96-well P81 filter plate (Whatmann) and incubated at room temperature for 5 minutes. The filter plate was then washed 4 times with 200 μL 75 mM phosphoric acid per well on a plate vacuum manifold (Millipore) and dried in an oven for 2-3 hours. Packard MicroScint ‘0’ (30 μL) was then added to each well, the plate was miffed for 30 minutes and subjected to liquid scintillation counting on a Packard TopCount.

Usually melting point stands for the temperature of the solid-liquid transition. A word on the IC50: it is the point on the concentration scale where inhibition reaches its midpoint. `CCOc1ccc(Nc2c(CC)c(N[C@H]3CC[C@H](N)CC3)nc3ccnn23)cc1` [Compound 31] registered a melting point of 131 to 133 °C. In addition, the “activity (efficacy against MAPKAP-K2)” value on MAPKAP-K2 is “+++”. The IC50 on CDK-2 was < 100 µM. The IC50 against CDK-1 was < 100 µM.

For the compound `CCc1c(N[C@H]2CC[C@H](N)CC2)nc2ccnn2c1Nc1ccc(OCc2ccccc2)cc1` [Compound 35], the melting point fell in the range of 120 to 122 °C. The “activity (efficacy against MAPKAP-K2)” value on MAPKAP-K2 is given as “+++”. At CDK-2, the IC50 is < 100 µM. At CDK-1, the IC50 was < 100 µM.
